Tests used:
Format in all cases: cell-based
[1] = tested on: NCI-H524 human small cell lung cancer cells; assay: H524 assay: inhibition of cell proliferation (CellTiter Glo); details: 2 h treatment, washout, additional 70 h incubation
In short: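 NCI-H524 cells were exposed for 2 h to NDC in an 11-point two-fold series starting at 1 uM. The drug was then washed out and cells grew a further 70 h. CellTiter Glo luminescence gave % inhibition versus untreated control, and IC50 came from a four-parameter nonlinear regression.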

[2] = molecular target: T1, SST2 (Homo sapiens, UniProt P30874); assay: PathHunter CHO-K1 SST2 Internalization Assay; details: PathHunter CHO-K1 SST2 cells; 90 min at 37 C; luminescence; read-out: Internalization EC50
T1 construct: host or cells: PathHunter CHO-K1 SST2 cells
T1 sequence (P30874 whole entry): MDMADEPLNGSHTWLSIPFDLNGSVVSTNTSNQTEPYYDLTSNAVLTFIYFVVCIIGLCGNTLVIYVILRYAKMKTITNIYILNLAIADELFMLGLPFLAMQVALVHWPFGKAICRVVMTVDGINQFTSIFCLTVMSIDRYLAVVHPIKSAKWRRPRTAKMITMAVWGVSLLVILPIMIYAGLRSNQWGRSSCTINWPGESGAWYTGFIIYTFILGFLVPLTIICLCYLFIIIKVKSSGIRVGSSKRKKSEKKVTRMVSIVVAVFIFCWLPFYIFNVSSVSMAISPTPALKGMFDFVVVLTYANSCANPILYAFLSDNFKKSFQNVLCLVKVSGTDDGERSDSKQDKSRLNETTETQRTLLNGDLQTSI
In short: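 CHO-K1 cells expressing human SST2, 2500 cells/well, grown 48 h, then exposed 90 min at 37 C to 11-point 1:3 NDC dilutions (final top 10 uM). Beta-Glo luminescence after 60 min at room temperature; four-parameter IC50, duplicate mean, background-corrected.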

[3] = molecular target: T2, human somatostatin receptor subtype 2 (Homo sapiens, UniProt P30874); assay: Functional assay for SSTR2 agonists (HTRF cAMP); details: CHO-K1 cells stably expressing human SST2; NKH477-stimulated cAMP; 20 min at 37 C; read-out: hSST2 cAMP Avg EC50
T2 construct: expressed in transfected cells
T2 sequence (P30874 whole entry): as above
In short: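 CHO-K1 cells stably expressing human SSTR2 treated with compound (typically 0-10,000 nM final) for 20 min at 37 °C. Lysate cAMP measured by HTRF (665/620 nm ratio), converted via standard curve; EC50 from cAMP vs concentration.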

Structure (SMILES) | EC50 [1] [nM] | EC50 [2] [nM] | EC50 [3] [nM]
CC[C@H](C)[C@@H]([C@@H](CC(=O)N1CCC[C@H]1[C@H](OC)[C@@H](C)C(=O)N[C@H](C)[C@@H](O)c1ccccc1)OC)N(C)C(=O)[C@@H](NC(=O)[C@H](C(C)C)N(C)C(=O)OCc1ccc(NC(=O)[C@H](CCCNC(N)=O)NC(=O)[C@@H](NC(=O)CCCC(=O)N(C)CC(=O)NCCNc2ncc(-c3cc(C)cc(F)c3)c(N3CCC(N)CC3)c2-c2nc3ccc(Cl)cc3[nH]2)C(C)C)c(O[C@@H]2O[C@H](C(=O)O)[C@@H](O)[C@H](O)[C@H]2O)c1)C(C)C [Compound 56] | 26 | 68 | 0.81
CC[C@H](C)[C@@H]([C@@H](CC(=O)N1CCC[C@H]1[C@H](OC)[C@@H](C)C(=O)N[C@H](C)[C@@H](O)c1ccccc1)OC)N(C)C(=O)[C@@H](NC(=O)[C@H](C(C)C)N(C)C(=O)OCc1ccc(NC(=O)[C@H](CCCNC(N)=O)NC(=O)[C@@H](NC(=O)[C@H](CCC(=O)O)NC(=O)CCOCCC(=O)NCCNc2ncc(-c3cc(C)cc(F)c3)c(N3CCC(N)CC3)c2-c2nc3ccc(Cl)cc3[nH]2)C(C)C)cc1C(=O)NCCNC)C(C)C [Compound 57] | 1000 | 6.6 | 0.31
CC[C@H](C)[C@@H]([C@@H](CC(=O)N1CCC[C@H]1[C@H](OC)[C@@H](C)C(=O)N[C@H](C)[C@@H](O)c1ccccc1)OC)N(C)C(=O)[C@@H](NC(=O)[C@H](C(C)C)N(C)C(=O)OCc1ccc(NC(=O)[C@H](CCCNC(N)=O)NC(=O)[C@@H](NC(=O)c2cc(NCCOCCC(=O)NCCNc3ncc(-c4cc(C)cc(F)c4)c(N4CCC(N)CC4)c3-c3nc4ccc(Cl)cc4[nH]3)cc(C(=O)NCCN(CC(=O)O)CC(=O)O)c2)C(C)C)cc1C(=O)NCCN)C(C)C [Compound 58] | 910 | 14 | 0.26
CC[C@H](C)[C@@H]([C@@H](CC(=O)N1CCC[C@H]1[C@H](OC)[C@@H](C)C(=O)N[C@H](C)[C@@H](O)c1ccccc1)OC)N(C)C(=O)[C@@H](NC(=O)[C@H](C(C)C)N(C)C(=O)OCc1ccc(NC(=O)[C@H](CCCNC(N)=O)NC(=O)[C@@H](NC(=O)CCOCCOCCOCCOCCC(=O)NCCNc2ncc(-c3cc(C)cc(F)c3)c(N3CCC(N)CC3)c2-c2nc3ccc(Cl)cc3[nH]2)C(C)C)cc1C(=O)N1CC(N)C1)C(C)C [Compound 59] | 260 | 2 | 0.25
CC[C@H](C)[C@@H]([C@@H](CC(=O)N1CCC[C@H]1[C@H](OC)[C@@H](C)C(=O)N[C@H](C)[C@@H](O)c1ccccc1)OC)N(C)C(=O)[C@@H](NC(=O)[C@H](C(C)C)N(C)C(=O)OCc1ccc(NC(=O)[C@H](CCCNC(N)=O)NC(=O)[C@@H](NC(=O)[C@H](CCC(=O)O)NC(=O)CCOCCC(=O)NCCNc2ncc(-c3cc(C)cc(F)c3)c(N3CCC(N)CC3)c2-c2nc3ccc(Cl)cc3[nH]2)C(C)C)cc1C(=O)NCCN(C)C)C(C)C [Compound 64] | 11 | 2.9 | 0.12
CC[C@H](C)[C@@H]([C@@H](CC(=O)N1CCC[C@H]1[C@H](OC)[C@@H](C)C(=O)N[C@H](C)[C@@H](O)c1ccccc1)OC)N(C)C(=O)[C@@H](NC(=O)[C@H](C(C)C)N(C)C(=O)OCc1ccc(NC(=O)[C@H](CCCNC(N)=O)NC(=O)[C@@H](NC(=O)[C@H](CCC(=O)O)NC(=O)CCOCCOCCOCCOCCC(=O)NCCNc2ncc(-c3cc(C)cc(F)c3)c(N3CCC(N)CC3)c2-c2nc3ccc(Cl)cc3[nH]2)C(C)C)cc1C(=O)N1CC(N)C1)C(C)C [Compound 65] | 17 | 3.4 | 0.074
CC[C@H](C)[C@@H]([C@@H](CC(=O)N1CCC[C@H]1[C@H](OC)[C@@H](C)C(=O)N[C@H](C)[C@@H](O)c1ccccc1)OC)N(C)C(=O)[C@@H](NC(=O)[C@H](C(C)C)N(C)C(=O)OCc1ccc(NC(=O)[C@H](C)NC(=O)[C@@H](NC(=O)[C@H](CCc2nnn[nH]2)NC(=O)CCOCCC(=O)NCCNc2ncc(-c3cc(C)cc(F)c3)c(N3CCC(N)CC3)c2-c2nc3ccc(Cl)cc3[nH]2)C(C)C)cc1C(=O)NCCN)C(C)C [Compound 66] | 6.8 | 5.6 | 0.14
CC[C@H](C)[C@@H]([C@@H](CC(=O)N1CCC[C@H]1[C@H](OC)[C@@H](C)C(=O)N[C@H](C)[C@@H](O)c1ccccc1)OC)N(C)C(=O)[C@@H](NC(=O)[C@H](C(C)C)N(C)C(=O)OCc1ccc(NC(=O)[C@H](CCCNC(N)=O)NC(=O)[C@@H](NC(=O)CCOCCOCCOCCOCCC(=O)NCCNc2ncc(-c3cc(C)cc(F)c3)c(N3CCC(N)CC3)c2-c2nc3ccc(Cl)cc3[nH]2)C(C)C)cc1C(=O)N1CC(C(=O)O)C1)C(C)C [Compound 67] | 85 | 5.5 | 0.086
CC[C@H](C)[C@@H]([C@@H](CC(=O)N1CCC[C@H]1[C@H](OC)[C@@H](C)C(=O)N[C@H](C)[C@@H](O)c1ccccc1)OC)N(C)C(=O)[C@@H](NC(=O)[C@H](C(C)C)N(C)C(=O)OCc1ccc(NC(=O)[C@H](C)NC(=O)[C@@H](NC(=O)CCOCCOCCOCCOCCC(=O)NCCNc2ncc(-c3cc(C)cc(F)c3)c(N3CCC(N)CC3)c2-c2nc3ccc(Cl)cc3[nH]2)C(C)C)cc1C(=O)NCC(=O)O)C(C)C [Compound 69] | 36 | 5.6 | 0.16
CC[C@H](C)[C@@H]([C@@H](CC(=O)N1CCC[C@H]1[C@H](OC)[C@@H](C)C(=O)N[C@H](C)[C@@H](O)c1ccccc1)OC)N(C)C(=O)[C@@H](NC(=O)[C@H](C(C)C)N(C)C(=O)OCc1ccc(NC(=O)[C@H](CCCNC(N)=O)NC(=O)[C@@H](NC(=O)CN(C)C(=O)CCOCCC(=O)NCCNc2ncc(-c3cc(C)cc(F)c3)c(N3CCC(N)CC3)c2-c2nc3ccc(Cl)cc3[nH]2)C(C)C)cc1C(=O)NCC(=O)O)C(C)C [Compound 71] | 100 | 7.5 | 0.14
CC[C@H](C)[C@@H]([C@@H](CC(=O)N1CCC[C@H]1[C@H](OC)[C@@H](C)C(=O)N[C@H](C)[C@@H](O)c1ccccc1)OC)N(C)C(=O)[C@@H](NC(=O)[C@H](C(C)C)N(C)C(=O)OCc1ccc(NC(=O)[C@H](CCCNC(N)=O)NC(=O)[C@@H](NC(=O)CCCCC(=O)NCCNc2ncc(-c3cc(C)cc(F)c3)c(N3CCC(N)CC3)c2-c2nc3ccc(Cl)cc3[nH]2)C(C)C)cc1C(=O)NCC(=O)O)C(C)C [Compound 72] | 40 | 4.7 | 0.11
CC[C@H](C)[C@@H]([C@@H](CC(=O)N1CCC[C@H]1[C@H](OC)[C@@H](C)C(=O)N[C@H](C)[C@@H](O)c1ccccc1)OC)N(C)C(=O)[C@@H](NC(=O)[C@H](C(C)C)N(C)C(=O)OCc1ccc(NC(=O)[C@H](CCCNC(N)=O)NC(=O)[C@@H](NC(=O)C[C@@H](N)C(=O)NCCOCCC(=O)NCCNc2ncc(-c3cc(C)cc(F)c3)c(N3CCC(N)CC3)c2-c2nc3ccc(Cl)cc3[nH]2)C(C)C)cc1C(=O)N1CC(C(=O)O)C1)C(C)C [Compound 73] | 110 | 3.1 | 0.06
CC[C@H](C)[C@@H]([C@@H](CC(=O)N1CCC[C@H]1[C@H](OC)[C@@H](C)C(=O)N[C@H](C)[C@@H](O)c1ccccc1)OC)N(C)C(=O)[C@@H](NC(=O)[C@H](C(C)C)N(C)C(=O)OCc1ccc(NC(=O)[C@H](CCCNC(N)=O)NC(=O)[C@@H](NC(=O)CCOCCOCCC(=O)NCCNc2ncc(-c3cc(C)cc(F)c3)c(N3CCC(N)CC3)c2-c2nc3ccc(Cl)cc3[nH]2)C(C)C)cc1C(=O)NCCNC(=O)CCOCCOCCOCCOCCC(=O)O)C(C)C [Compound 74] | 17 | 4.3 | 0.19
CC[C@H](C)[C@@H]([C@@H](CC(=O)N1CCC[C@H]1[C@H](OC)[C@@H](C)C(=O)N[C@H](C)[C@@H](O)c1ccccc1)OC)N(C)C(=O)[C@@H](NC(=O)[C@H](C(C)C)N(C)C(=O)OCc1ccc(NC(=O)[C@H](CCCNC(N)=O)NC(=O)[C@@H](NC(=O)CCOCCOCCC(=O)NCCNc2ncc(-c3cc(C)cc(F)c3)c(N3CCC(N)CC3)c2-c2nc3ccc(Cl)cc3[nH]2)C(C)C)cc1C(=O)NCCCCCCCCCCC(=O)O)C(C)C [Compound 75] | 440 | 2.4 | 0.21
CC[C@H](C)[C@@H]([C@@H](CC(=O)N1CCC[C@H]1[C@H](OC)[C@@H](C)C(=O)N[C@H](C)[C@@H](O)c1ccccc1)OC)N(C)C(=O)[C@@H](NC(=O)[C@H](C(C)C)N(C)C(=O)OCc1ccc(NC(=O)[C@H](CCCNC(N)=O)NC(=O)[C@@H](NC(=O)[C@@H](CS(=O)(=O)O)NC(=O)CCOCCC(=O)NCCNc2ncc(-c3cc(C)cc(F)c3)c(N3CCC(N)CC3)c2-c2nc3ccc(Cl)cc3[nH]2)C(C)C)cc1C(=O)N1CC(N)C1)C(C)C [Compound 76] | 12 | 4.7 | 0.075
CC[C@H](C)[C@@H]([C@@H](CC(=O)N1CCC[C@H]1[C@H](OC)[C@@H](C)C(=O)N[C@H](C)[C@@H](O)c1ccccc1)OC)N(C)C(=O)[C@@H](NC(=O)[C@H](C(C)C)N(C)C(=O)OCc1ccc(NC(=O)[C@H](CCCNC(N)=O)NC(=O)[C@@H](NC(=O)[C@@H](CS(=O)(=O)O)NC(=O)CCOCCC(=O)NCCNc2ncc(-c3cc(C)cc(F)c3)c(N3CCC(N)CC3)c2-c2nc3ccc(Cl)cc3[nH]2)C(C)C)cc1C(=O)N1CC(C(=O)O)C1)C(C)C [Compound 77] | 130 | 4.2 | 0.092

Reference: patent US20260007758A1, “SO[…]-2 RECEPTOR (SST2R) NON-PEPTIDE DRUG CONJUGATES AND USES THEREOF” (Crinetics Pharmaceuticals, Inc., priority 2024, published 2026)
